Reference: US20240158446A1, “CYCLIC COMPOUND HAVING SELECTIVE INHIBITORY ACTION ON KRAS OVER HRAS AND NRAS” (CHUGAI SEIYAKU KABUSHIKI KAISHA, priority 2021, published 2024)
Like-named read-outs stand apart in the source and are kept apart here. Where a SMILES comes first, the peptide text is derived from it. Bridges are numbered along the chain shown (N, C = ends). [ ]: non-standard residue; d: D form. The star is where a group is joined. hPhe(3-Cl-4-CF3) = N[C@@H](CCc1ccc(C(F)(F)F)c(Cl)c1)C(=O)O; NPrPhe(4-CF3) = CCCN[C@@H](Cc1ccc(C(F)(F)F)cc1)C(=O)O; NEtPhe(4-F) = CCN[C@@H](Cc1ccc(F)cc1)C(=O)O; Morpholine(3S-CO) = O=C(O)[C@@H]1COCCN1; NMeGly(cPent) = CN[C@H](C(=O)O)C1CCCC1; Pro(4S-Me) = C[C@@H]1CN[C@H](C(=O)O)C1; NMeD = CN[C@@H](CC(=O)O)C(=O)O; NMeL = CN[C@@H](CC(C)C)C(=O)O; Morpholide = C1CN(*)CCO1; Ac5c = NC1(C(=O)O)CCCC1; NPrGly = CCCNCC(=O)O; NEtG = CCNCC(=O)O; Sar = CNCC(=O)O

Experiments:
[1] = target: GDP-bound NRAS wild-type protein (Homo sapiens, UniProt P01111); test: Binding to NRAS by surface plasmon resonance (SPR), Single Cycle Kinetics
Chain of GDP-bound NRAS wild-type protein (P01111 whole entry): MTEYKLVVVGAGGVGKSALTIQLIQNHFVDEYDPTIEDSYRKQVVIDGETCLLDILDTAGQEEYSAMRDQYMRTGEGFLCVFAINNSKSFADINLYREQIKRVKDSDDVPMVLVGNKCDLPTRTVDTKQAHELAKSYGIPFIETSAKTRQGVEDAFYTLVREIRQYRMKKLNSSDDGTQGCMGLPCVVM

[2] = target: GDP-bound HRAS wild-type protein (Homo sapiens, UniProt P01112); test: Binding to HRAS by surface plasmon resonance (SPR), Single Cycle Kinetics
Chain of GDP-bound HRAS wild-type protein (P01112 whole entry): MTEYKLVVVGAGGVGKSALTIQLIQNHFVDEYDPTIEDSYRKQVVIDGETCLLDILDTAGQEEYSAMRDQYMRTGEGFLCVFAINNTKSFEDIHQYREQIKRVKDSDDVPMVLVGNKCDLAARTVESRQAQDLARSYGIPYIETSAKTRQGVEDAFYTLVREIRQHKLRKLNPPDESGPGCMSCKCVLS

[3] = target: GDP-bound KRAS wild-type protein (Homo sapiens, UniProt P01116); test: Binding to KRAS by surface plasmon resonance (SPR), Single Cycle Kinetics; details: GDP-bound KRAS wild-type protein, read-out: KRAS KD
Chain of GDP-bound KRAS wild-type protein (P01116 whole entry): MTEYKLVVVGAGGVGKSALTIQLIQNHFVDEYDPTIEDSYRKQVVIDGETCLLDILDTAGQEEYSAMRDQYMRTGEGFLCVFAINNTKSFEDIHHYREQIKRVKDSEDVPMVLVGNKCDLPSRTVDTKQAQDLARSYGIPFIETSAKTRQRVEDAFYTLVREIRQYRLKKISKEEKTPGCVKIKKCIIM

[4] = SPR, GDP-bound NRAS wild-type protein vs GDP-bound KRAS wild-type protein
[5] = SPR, GDP-bound HRAS wild-type protein vs GDP-bound KRAS wild-type protein
[6] = SPR Single Cycle Kinetics, 1:1 binding model

Compound	NRAS/KRAS (ratio of KD value for NRAS to KD value for KRAS) [1, 4]	HRAS/KRAS (ratio of KD value for HRAS to KD value for KRAS) [2, 5]	Kd ([3]; SPR, Single Cycle Kinetics) [pM]	NRAS/KRAS (ratio of KD value with respect to GDP-bound NRAS wild-type protein to KD value with respect to KRAS) ([1]; SPR KD ratio NRAS/KRAS, class symbols)	HRAS/KRAS (ratio of KD value with respect to GDP-bound HRAS wild-type protein to KD value with respect to KRAS) ([2]; SPR KD ratio HRAS/KRAS, class symbols)	Kd [3, 6] [pM]	NRAS/KRAS (ratio of KD value with respect to NRAS to KD value with respect to KRAS) [1, 4]	HRAS/KRAS (ratio of KD value with respect to HRAS to KD value with respect to KRAS) [2, 5]
CCO[C@@H]1C[C@H]2C(=O)NC3(CCC3)C(=O)N(C)[C@@H](C3CCCC3)C(=O)N(C)[C@H](C(=O)N(C)C)CC(=O)N(C)[C@@H](CCC(F)F)C(=O)N[C@@H]([C@@H](C)CC)C(=O)N(C)CC(=O)N(C)[C@H]3C/C=C\CCN(C3=O)[C@@H](Cc3ccc(C(F)(F)F)cc3)C(=O)N(C)CC(=O)N[C@@H](CCc3cc(F)c(C(F)(F)F)c(F)c3)C(=O)N2C1 [PP1121, (2S,8S,12R,14S,20S,23S,27S,30S,36S,38Z)-20-cyclopentyl-27-(3,3-difluoropropyl)-8-[2-[3,5-difluoro-4-(trifluoromethyl)phenyl]ethyl]-12-ethoxy-N,N,4,19,22,26,32,35-octamethyl-30-[(1S)-1-methylpropyl]-3,6,9,15,18,21,25,28,31,34,42-undecaoxo-2-[[4-(trifluoromethyl)phenyl]methyl]spiro[1,4,7,10,16,19,22,26,29,32,35-undecazatricyclo[34.5.1.0^10,14]dotetracont-38-ene-17,1′-cyclobutane]-23-carboxamide]	A (a compound having 10 or more and less than 20 is denoted as A)	A (a compound having 10 or more and less than 20 is denoted as A)	49	–	–	–	–	–
CCO[C@@H]1C[C@H]2C(=O)NC3(CC(C)(C)C3)C(=O)N(C)[C@@H](C(CC)CC)C(=O)N(C)[C@H](C(=O)N(C)C)CC(=O)N(C)[C@@H](CC3CCC3)C(=O)N[C@@H]([C@@H](C)CC)C(=O)N(C)CC(=O)N(C)[C@H]3C/C=C\CCN(C3=O)[C@@H](Cc3ccc(C(F)(F)F)cc3)C(=O)N(C)CC(=O)N[C@@H](CCc3ccc(C(F)(F)F)c(Cl)c3)C(=O)N2C1 [PP2138]	A (a compound having 10 or more and less than 20 is denoted as A)	A (a compound having 10 or more and less than 20 is denoted as A)	440	–	–	–	–	–
CCC(CC)[C@H]1C(=O)N(C)[C@H](C(=O)N(C)C)CC(=O)N(C)[C@@H](COC)C(=O)N[C@@H]([C@@H](C)CC)C(=O)N(C)CC(=O)N(C)[C@H]2C/C=C\CCN(C2=O)[C@@H](Cc2ccc(C(F)(F)F)cc2)C(=O)N(C)CC(=O)N[C@@H](CCc2ccc(C(F)(F)F)c(Cl)c2)C(=O)N2CC3(CC3)C[C@H]2C(=O)NC2(CC(C)(C)C2)C(=O)N1C [PP2965]	–	–	–	AA (a compound having 20 or more is denoted as AA)	A (a compound having 10 or more and less than 20 is denoted as A)	470	–	–
CCO[C@@H]1C[C@H]2C(=O)NC3(CCC3)C(=O)N(C)[C@@H](C3CCCC3)C(=O)N(CC)[C@H](C(=O)N3CCOCC3)CC(=O)N(C)[C@@H](COC)C(=O)N[C@@H]([C@@H](C)CC)C(=O)N(C)CC(=O)N(C)[C@H]3CCCCCN(C3=O)[C@@H](Cc3ccc(C(F)(F)F)cc3)C(=O)N(C)CC(=O)N[C@@H](CCc3cc(F)c(C(F)(F)F)c(F)c3)C(=O)N2C1 [PP0946]	A (a compound having 10 or more and less than 20 is denoted as A)	B (a compound having 3 or more and less than 10 is denoted as B)	2200	–	–	–	–	–
CC[C@H](C)[C@@H]1NC(=O)[C@H](CC(C)C)N(C)C(=O)C[C@@H](C(=O)N2CCOCC2)N(C)C(=O)[C@H](C2CCCC2)N(C)C(=O)C2(CCCC2)NC(=O)[C@@H]2CCCN2C(=O)[C@H](CCc2ccc(C(F)(F)F)c(Cl)c2)NC(=O)CN(C)C(=O)[C@H](Cc2ccc(F)cc2)N(CC)C(=O)CN(C)C(=O)CN(C)C1=O [PP0213] ([NMeL]I[Sar][Sar][NEtPhe(4-F)][Sar][hPhe(3-Cl-4-CF3)]P[Ac5c][NMeGly(cPent)][NMeD]-Morpholide; lactam N-11)	C (A compound having a KD ratio of 0.1 or more and less than 3 is denoted as C)	C (A compound having a KD ratio of 0.1 or more and less than 3 is denoted as C)	–	–	–	250	–	–
CCCN1C(=O)CN(C)C(=O)CN(C)C(=O)[C@H]([C@@H](C)CC)NC(=O)[C@H](CC(C)C)N(C)C(=O)C[C@@H](C(=O)N2CCOCC2)N(C)C(=O)[C@H](C2CCCC2)N(C)C(=O)C2(CCCC2)NC(=O)[C@@H]2COCCN2C(=O)[C@H](CCc2ccc(C(F)(F)F)c(Cl)c2)NC(=O)CN(C)C(=O)[C@@H]1Cc1ccc(C(F)(F)F)cc1 [PP0265] ([NMeL]I[Sar][Sar][NPrPhe(4-CF3)][Sar][hPhe(3-Cl-4-CF3)][Morpholine(3S-CO)][Ac5c][NMeGly(cPent)][NMeD]-Morpholide; lactam N-11)	B (a compound having 3 or more and less than 10 is denoted as B)	C (A compound having a KD ratio of 0.1 or more and less than 3 is denoted as C)	–	–	–	280	–	–
C=CC[C@H]1C(=O)N[C@@H]([C@@H](C)CC)C(=O)N(C)CC(=O)N(C)[C@H]2C/C=C\CCN(C2=O)[C@@H](Cc2ccc(C(F)(F)F)cc2)C(=O)N(C)CC(=O)N[C@@H](CCc2cc(F)c(C(F)(F)F)c(F)c2)C(=O)N2C[C@H](OCC)C[C@H]2C(=O)NC2(CCC2)C(=O)N(C)[C@@H](C2CCCC2)C(=O)N(C)[C@H](C(=O)N(C)C)CC(=O)N1C [PP1114, (2S,8S,12R,14S,20S,23S,27S,30S,36S,38Z)-27-allyl-20-cyclopentyl-8-[2-[3,5-difluoro-4-(trifluoromethyl)phenyl]ethyl]-12-ethoxy-N,N,4,19,22,26,32,35-octamethyl-30-[(1S)-1-methylpropyl]-3,6,9,15,18,21,25,28,31,34,42-undecaoxo-2-[[4-(trifluoromethyl)phenyl]methyl]spiro[1,4,7,10,16,19,22,26,29,32,35-undecazatricyclo[34.5.1.0^10,14]dotetracont-38-ene-17,1′-cyclobutane]-23-carboxamide]	A (a compound having 10 or more and less than 20 is denoted as A)	A (a compound having 10 or more and less than 20 is denoted as A)	54	–	–	–	–	–
CCCN1C(=O)CN(C)C(=O)CN(C)C(=O)[C@H]([C@@H](C)CC)NC(=O)[C@H](CC(C)C)N(C)C(=O)C[C@@H](C(=O)N2CCOCC2)N(C)C(=O)[C@H](C2CCCC2)N(C)C(=O)C2(CCCC2)NC(=O)[C@@H]2C[C@H](C)CN2C(=O)[C@H](CCc2ccc(C(F)(F)F)c(Cl)c2)NC(=O)CN(C)C(=O)[C@@H]1Cc1ccc(C(F)(F)F)cc1 [PP0447] ([NMeL]I[Sar][Sar][NPrPhe(4-CF3)][Sar][hPhe(3-Cl-4-CF3)][Pro(4S-Me)][Ac5c][NMeGly(cPent)][NMeD]-Morpholide; lactam N-11)	–	–	–	–	–	180	B (a compound having 3 or more and less than 10 is denoted as B)	C (A compound having a KD ratio of 0.1 or more and less than 3 is denoted as C)
CC[C@H](C)[C@@H]1NC(=O)[C@H](C(C)C)N(C)C(=O)C[C@@H](C(=O)N(C)CC)N(C)C(=O)[C@H](C2CCCC2)N(C)C(=O)C2(CCC2)NC(=O)[C@@H]2C[C@H](C)CN2C(=O)[C@H](CCc2ccc(C(F)(F)F)c(OC)c2)NC(=O)CN(C)C(=O)[C@H](Cc2ccc(C(F)(F)F)cc2)N2CC/C=C\C[C@@H](C2=O)N(C)C(=O)CN(C)C1=O [PP2065]	A (a compound having 10 or more and less than 20 is denoted as A)	B (a compound having 3 or more and less than 10 is denoted as B)	220	–	–	–	–	–
CCCN1CC(=O)NC2(CCCC2)C(=O)N(C)[C@@H](C2CCCC2)C(=O)N(C)[C@H](C(=O)N2CCOCC2)CC(=O)N(C)[C@@H](CC(C)C)C(=O)N[C@@H]([C@@H](C)CC)C(=O)N(CC)CC(=O)N(C)CC(=O)N(CCC)[C@@H](Cc2ccc(C(F)(F)F)cc2)C(=O)N(C)CC(=O)N[C@@H](CCc2ccc(C(F)(F)F)c(Cl)c2)C1=O [PP0301] ([NMeL]I[NEtG][Sar][NPrPhe(4-CF3)][Sar][hPhe(3-Cl-4-CF3)][NPrGly][Ac5c][NMeGly(cPent)][NMeD]-Morpholide; lactam N-11)	B (a compound having 3 or more and less than 10 is denoted as B)	C (A compound having a KD ratio of 0.1 or more and less than 3 is denoted as C)	–	–	–	4800	–	–
CC[C@H](C)[C@@H]1NC(=O)[C@H](CC(C)C)N(C)C(=O)C[C@@H](C(=O)N2CCOCC2)N(C)C(=O)[C@H](C2CCCC2)N(C)C(=O)C2(CCC2)NC(=O)[C@@H]2C[C@@H](OCC3CCCC3)CN2C(=O)[C@H](CCc2cc(F)c(C(F)(F)F)c(F)c2)NC(=O)CN(C)C(=O)[C@H](Cc2ccc(C(F)(F)F)cc2)N2CCCC[C@@H](C2=O)N(C)C(=O)CN(C)C1=O [PP1001]	B (a compound having 3 or more and less than 10 is denoted as B)	B (a compound having 3 or more and less than 10 is denoted as B)	100	–	–	–	–	–
